For test [1], the system named is durch Carrageenan ausgelöste ödem der Rattenpfote. The test can be described thus: Carrageenan-induced rat paw oedema (method of Winter et al., modified: pure λ-carrageenan as 0,25 % suspension in saline). The format is in vivo, Ratte. The following applies: po, p.o, λ-carrageenan 0,25 % suspension, read-out: DE50 (the source's name). The procedure:
Die Verbindungen der allgemeinen Formel I hemmen das durch Carrageenan ausgelöste ödem der Rattenpfote stark. Zum Nachweis diente die Methode von Winter et al., Proc. Soc. Exp. Bil. Med. 111, 544 (1962), mit der Abwandlung, daß zur ödemauslösung reines λ-carrageenan als 0,25 % Suspension in physiologischer Kochsalzlösung verwendet wurde. Beispielhaft wurde in diesem Testmodell für Verb. 1 die DE50 = 0,5 mg/kg p.o ermittelt.
(In the carrageenan paw model, swelling and tenderness develop within hours.)

Test [2] concerns Metabolisierung der Arachidonsäure über den Cyclooxygenaseweg. Put plainly: Inhibition of arachidonic acid metabolism via the cyclooxygenase pathway (method of Brune et al.). The test is classed as cell-based. The text has this: Wie die meisten NSAID (non steroidal antiinflammatory drugs) hemmen auch die meisten Verbindungen der allgemeinen Formel I die Metabolisierung der Arachidonsäure über den Cyclooxygenaseweg mehr oder weniger stark (Methode von Brune et al., Naunyn-Schmiedeberg's Arch. Pharmacol. 315, 269 (1981)). Die IC50 für Verb. 1 in diesem Test beträgt 2.6 x 10-^6 Mol/l.

Test [3] deals with durch das chemotaktisch wirkende FMLP stimulierte Aggregation von PMN-Leukozyten. Put plainly: Inhibition of FMLP-stimulated aggregation of PMN leukocytes (method of Cunningham et al.). The format is cell-based. The following applies: Leukocyte. The source says: Darüber hinaus konnte für eine Reihe von Verbindungen der allgemeinen Formel I nachgewiesen werden, daß sie die durch das chemotaktisch wirkende FMLP stimulierte Aggregation von PMN-Leukozyten hemmen und dadurch Anteil an der entzündungshemmenden Wirkung haben (Methode von Cunningham et al., Agents & Actions 11, 583 (1981)). Für Verb. 1 ist die IC50 in diesem Test 3.7 x 10^-5 Mol/l.

By IC50 is commonly meant the concentration that inhibits the measured activity by half. A higher IC50 goes with a need for much substance. In the case of `O=C1C(O)=C(NCc2ccccc2)C(=O)c2ccccc21` [Verb. 1, 2-Benzylamino-3-hydroxy-naphthochinon-1,4], the ED50 in test [1] was 0.5 mg/kg. In addition, the IC50 in test [2] came to 2600 nM; in test [3], 37 µM.

The record behind these values is patent EP0149818A2, “1,4-Naphthoquinone derivatives, process for their preparation and their use as medicines” (Troponwerke GmbH & Co. KG, priority 1983, dated 1985).
